Assay results reported in patent US20090143438A1, “Novel Pyridine Derivative Having Anti-Helicobacter Pylori Activity” (Arigen Pharmaceuticals, Inc., priority 2006, published 2009).
Values after ≈ are worked out from the molar mass of the structure shown.

Columns and labels:
[1] = test system: H. pylori NCTC 11637; assay: In vitro MIC test in Columbia agar, standard strain; format: cell-based, Helicobacter pylori; conditions: for MIC: Helicobacter pylori, NCTC11637, 72 h, standard strain NCTC 11637, 37° C., pH 7.0, 3 days
Experimental: (§1) An in vitro test was performed in a Columbia agar medium using standard strains of H. pylori, NCTC 11637 and 11916, clinical isolates PT#1045482, PT#1045483 and PT#1045484, and ofloxacin- and roxithromycin-resistant, clinical isolates TY2, 4 and 5. Each of the test objects was dissolved in a 1% DMSO solution. Furthermore, as antibiotic control drugs, roxithromycin from the macrolide family and ofloxacin from the new quinolone family were used. The strains were cultured at 37° C. and pH 7.0 for 3 days, and on the 4th day, the minimum inhibitory concentrations (MIC, μg/ml) were determined.

[2] = test system: H. pylori NCTC 11916; assay: as above; format: cell-based, Helicobacter pylori; conditions: for MIC: Helicobacter pylori, NCTC11916, 72 h, standard strain NCTC 11916, 37° C., pH 7.0, 3 days
Experimental: as §1

[3] = test system: H. pylori, ATCC 43504; assay: Antibacterial power test, Columbia agar, MIC; format: cell-based, Helicobacter pylori; conditions: Helicobacter pylori, ATCC43504, 72 h, 37° C., pH 7.0, 3 days, read on 4th day, read-out: MIC, in vitro anti-Helicobacter pylori activity
Experimental: An in vitro test was performed in a Columbia agar medium using a standard strain of H. pylori, ATCC 43504. […] Each of the test objects was dissolved in a 1% DMSO solution. Furthermore, as antibiotic control drugs, ampicillin from the penicillin family (control drug 1), gentamycin from the aminoglycoside family (control drug 2), tetracycline from the tetracycline family (control drug 3), and ofloxacin from the new quinolone family (control drug 4) were used.

[4] = test system: H. pylori clinical isolate PT#1045482; assay: In vitro MIC test in Columbia agar, clinical isolate; format: cell-based; conditions: Helicobacter pylori, 72 h, 37° C., pH 7.0, 3 days
Experimental: as §1

[5] = test system: H. pylori clinical isolate PT#1045484; assay: as above; format: cell-based; conditions: Helicobacter pylori, 72 h, 37° C., pH 7.0, 3 days
Experimental: as §1

[6] = test system: H. pylori clinical isolate PT#1045483; assay: as above; format: cell-based; conditions: Helicobacter pylori, 72 h, 37° C., pH 7.0, 3 days
Experimental: as §1

[7] = test system: Staphylococcus epidermidis (ATCC 12228); assay: In vitro antibacterial test against various bacteria, MIC; format: cell-based; conditions: ATCC12228, 37° C., 20 to 48 hours, read-out: MIC
Experimental: (§2) An in vitro antibacterial test for the compounds of Examples 1 to 6 against various bacteria was performed. As gram-negative bacteria, Escherichia coli (ATCC 10536, ATCC 25922), Klebsiella pneumonia (ATCC 10031), Proteus vulgaris (ATCC 13315), Pseudomonas aeruginosa (ATCC 9027), Salmonella typhimurium (ATCC 13311), and as gram-positive bacteria, Staphylococcus aureus, MRSA (ATCC 33591), Staphylococcus epidermidis (ATCC 12228), Streptococcus pneumonia (ATCC 6301), Mycobacterium ranae (ATCC 110) and Enterococcus faecalis (VRE, ATCC 51575) were used. The various bacteria were cultured at 37° C. for 20 to 48 hours by conventional methods, and the minimum inhibitory concentrations (MIC, μg/ml) were determined. Each of the test objects were dissolved in a 1% DMSO solution. Furthermore, as an antibiotic control drug, gentamycin (GEM) from the aminoglycoside family was used.

[8] = test system: Mycobacterium ranae (ATCC 110); assay: as above; format: cell-based; conditions: ATCC110, 37° C., 20 to 48 hours, read-out: MIC
Experimental: as §2

[9] = test system: Escherichia coli (ATCC 10536); assay: as above; format: cell-based; conditions: ATCC10536, 37° C., 20 to 48 hours, read-out: MIC
Experimental: as §2

[10] = test system: Salmonella typhimurium (ATCC 13311); assay: as above; format: cell-based; conditions: Salmonella enterica, 37° C., 20 to 48 hours, read-out: MIC
Experimental: as §2

[11] = test system: Pseudomonas aeruginosa (ATCC 9027); assay: as above; format: cell-based; conditions: ATCC9027, 37° C., 20 to 48 hours, read-out: MIC
Experimental: as §2

[12] = test system: Streptococcus pneumonia (ATCC 6301); assay: as above; format: cell-based; conditions: Streptococcus pneumoniae, ATCC6301, 37° C., 20 to 48 hours
Experimental: as §2

[13] = test system: Klebsiella pneumonia (ATCC 10031); assay: as above; format: cell-based; conditions: Klebsiella pneumoniae, ATCC10031, 37° C., 20 to 48 hours, read-out: MIC
Experimental: as §2

[14] = test system: Proteus vulgaris (ATCC 13315); assay: as above; format: cell-based; conditions: ATCC13315, 37° C., 20 to 48 hours, read-out: MIC
Experimental: as §2

[15] = test system: Enterococcus faecalis (VRE, ATCC 51575); assay: as above; format: cell-based; conditions: 37° C., 20 to 48 hours
Experimental: as §2

[16] = test system: Escherichia coli (ATCC 25922); assay: as above; format: cell-based; conditions: ATCC25922, 37° C., 20 to 48 hours, read-out: MIC
Experimental: as §2

[17] = test system: Staphylococcus aureus, MRSA (ATCC 33591); assay: as above; format: cell-based; conditions: 37° C., 20 to 48 hours, read-out: MIC
Experimental: as §2

[18] = test system: H. pylori ofloxacin- and roxithromycin-resistant clinical isolate TY5; assay: In vitro MIC test in Columbia agar, resistant clinical isolate; format: cell-based; conditions: Helicobacter pylori, 72 h; resistant strain TY5; 37° C., pH 7.0, 3 days
Experimental: as §1

[19] = test system: H. pylori ofloxacin- and roxithromycin-resistant clinical isolate TY4; assay: as above; format: cell-based; conditions: Helicobacter pylori, 72 h; resistant strain TY4; 37° C., pH 7.0, 3 days
Experimental: as §1

[20] = test system: H. pylori ofloxacin- and roxithromycin-resistant clinical isolate TY2; assay: as above; format: cell-based; conditions: Helicobacter pylori, 72 h; resistant strain TY2; 37° C., pH 7.0, 3 days
Experimental: as §1

Compound	MIC [1] [µg/mL]	MIC [2] [µg/mL]	MIC [3] [µg/mL]	MIC [4] [µg/mL]	MIC [5] [µg/mL]	MIC [6] [µg/mL]	MIC [7] [µg/mL]	MIC [8] [µg/mL]	MIC [9] [µg/mL]	MIC [10] [µg/mL]	MIC [11] [µg/mL]	MIC [12] [µg/mL]	MIC [13] [µg/mL]	MIC [14] [µg/mL]	MIC [15] [µg/mL]	MIC [16] [µg/mL]	MIC [17] [µg/mL]	MIC [18] [µg/mL]	MIC [19] [µg/mL]	MIC [20] [µg/mL]	also measured
Cc1c(OCCCCCO)ccnc1CSc1nc2ccccc2[nH]1 [Example 1, 2-[{4-(5-hydroxypentyloxy)-3-methylpyridin-2-yl}methylthio]-1H-benzimidazole]	0.3 (≈ 0.839 µM)	0.3 (≈ 0.839 µM)	0.3 (≈ 0.839 µM)	0.2 (≈ 0.559 µM)	0.3 (≈ 0.839 µM)	0.3 (≈ 0.839 µM)	> 100	> 100	> 100	> 100	> 100	> 100	> 100	> 100	> 100	> 100	> 100	0.3 (≈ 0.839 µM)	0.3 (≈ 0.839 µM)	0.2 (≈ 0.559 µM)	
Cc1c(OCCCCCCCCO)ccnc1CSc1nc2ccccc2[nH]1 [Example 4, 2-[{4-(8-hydroxyoctyloxy)-3-methylpyridin-2-yl}methylthio]-1H-benzimidazole]	0.03 (≈ 0.0751 µM)	0.03 (≈ 0.0751 µM)	0.03 (≈ 0.0751 µM)	0.03 (≈ 0.0751 µM)	0.03 (≈ 0.0751 µM)	0.03 (≈ 0.0751 µM)	> 100	> 100	> 100	> 100	> 100	> 100	> 100	> 100	> 100	> 100	> 100	0.03 (≈ 0.0751 µM)	0.1 (≈ 0.25 µM)	0.03 (≈ 0.0751 µM)	activity compared to the compounds (e) and (f) ([1]; standard strain NCTC11637): 26.6 fold; activity compared to the compounds (e) and (f) ([2]; standard strain NCTC11916): 52 fold
Cc1c(OCCCCCCO)ccnc1CSc1nc2ccccc2[nH]1 [Example 2, 2-[{4-(6-hydroxyhexyloxy)-3-methylpyridin-2-yl}methylthio]-1H-benzimidazole]	0.1 (≈ 0.269 µM)	0.1 (≈ 0.269 µM)	0.1 (≈ 0.269 µM)	0.1 (≈ 0.269 µM)	0.3 (≈ 0.808 µM)	0.1 (≈ 0.269 µM)	> 100	> 100	> 100	> 100	> 100	> 100	> 100	> 100	> 100	> 100	> 100	0.1 (≈ 0.269 µM)	0.1 (≈ 0.269 µM)	0.3 (≈ 0.808 µM)	
Cc1c(OCCCCCCCO)ccnc1CSc1nc2ccccc2[nH]1 [Example 3, 2-[{4-(7-hydroxyheptyloxy)-3-methylpyridin-2-yl}methylthio]-1H-benzimidazole]	0.1 (≈ 0.259 µM)	0.1 (≈ 0.259 µM)	0.1 (≈ 0.259 µM)	0.1 (≈ 0.259 µM)	0.1 (≈ 0.259 µM)	0.1 (≈ 0.259 µM)	> 100	> 100	> 100	> 100	> 100	> 100	> 100	> 100	> 100	> 100	> 100	0.1 (≈ 0.259 µM)	0.1 (≈ 0.259 µM)	0.1 (≈ 0.259 µM)	
Cc1c(OCCCCCCCCCO)ccnc1CSc1nc2ccccc2[nH]1 [Example 5, 2-[{4-(9-hydroxynonyloxy)-3-methylpyridin-2-yl}methylthio]-1H-benzimidazole]	0.1 (≈ 0.242 µM)	0.1 (≈ 0.242 µM)	0.1 (≈ 0.242 µM)	0.2 (≈ 0.484 µM)	0.1 (≈ 0.242 µM)	0.1 (≈ 0.242 µM)	> 100	> 100	> 100	> 100	> 100	> 100	> 100	> 100	> 100	> 100	> 100	0.2 (≈ 0.484 µM)	0.3 (≈ 0.725 µM)	0.1 (≈ 0.242 µM)	
Cc1c(OCCCCCCCCCCO)ccnc1CSc1nc2ccccc2[nH]1 [Example 6, 2-[{4-(10-hydroxydecyloxy)-3-methylpyridin-2-yl}methylthio]-1H-benzimidazole]	0.3 (≈ 0.702 µM)	0.2 (≈ 0.468 µM)	0.3 (≈ 0.702 µM)	0.3 (≈ 0.702 µM)	0.3 (≈ 0.702 µM)	0.3 (≈ 0.702 µM)	> 100	> 100	> 100	> 100	> 100	> 100	> 100	> 100	> 100	> 100	> 100	0.3 (≈ 0.702 µM)	0.3 (≈ 0.702 µM)	0.3 (≈ 0.702 µM)	
